{"source": "patent US20060228297A1", "about": "“Thorium-227 for use in radiotherapy of soft tissue disease” (priority 2003, published 2006)", "key": {"[1]": {"system": "CD20 antigen expressing human lymphoma cell line DAUDI", "test": "Binding of ^227Th labeled antibody to DAUDI human lymphoma cells", "settings": "for Mean cpm bound per cell pellet, Unblocked: 2×10^7 DAUDI cells, two hours at 8° C., mean of a duplicate; for Mean cpm bound per cell pellet, Blocked: cells pre-saturated with 40 μg unlabeled rituximab; for Thorium-227 atoms bound per cell, Blocked: cells pre-saturated with unlabeled rituximab", "description": "DAUDI cells were purchased from European Collection of Cell Cultures (ECACC), Salisbury, UK, and grown according to supplier's instructions using culture medium and supplement from Gibco (Paisley, Scotland, UK) and using 500 ml culture flasks (Cell Star, Greiner Bio-One GmbH, Frickenhausen, Germany). DAUDI cells (2×10^7 cells in 0.7 ml PBS) were used to study binding of ^227Th labeled rituximab in vitro. As control of nonspecific binding, DAUDI cells pre-saturated (blocked) with 40 μg unlabeled rituximab for 15 minutes were used. To the test tubes (Polystyrene culture test tubes, 12×75 mm, Elkay, Shrewsbury, Mass., USA) were added ^227Th labeled rituximab corresponding to 1.3, 5.3, or 26 μg/ml respectively. The experiment was performed in duplicate at each concentration level using unblocked and blocked cells. Incubation was performed for two hours at 8° C. After incubation, cell suspensions were counted for radioactivity (Crystal II Multidetector, Packard Instrument Company Inc. Downers Grove, Ill., USA) and the cells washed with 2 ml of 1% BSA (Albumin, Bovine Fraction V, Sigma Chemical Co., St. Louis, Mo., USA) in PBS (Gibco, Paisley, Scotland, UK) and centrifuged (Centrifuge 5810 R, Eppendorf AG, Hamburg, Germany) at 200 rpm for 5 minutes. The washing/centrifugation was repeated twice. Thereafter the cell pellets were counted for radioactivity. The results (each the mean of a duplicate) are set out in Table 3 below."}, "adult dogs": {"system": "adult dogs", "settings": "cited from earlier work; for % of baseline at nadir (neutrophils) / Days to nadir (neutrophils): dogs"}, "[2]": {"settings": "13 kBq/kg single intravenous injection"}, "[3]": {"settings": "40 kBq/kg single intravenous injection"}, "[4]": {"settings": "120 kBq/kg single intravenous injection"}, "[5]": {"settings": "350 kBq/kg single intravenous injection"}}, "note": "Where two headings read alike, the source gives them in different places.", "data": [{"compound": "^227Th-labeled rituximab", "values": [{"measurement": "Thorium-227 atoms bound per cell, Net specific bound", "setting": "[1]; RIC conc. 1.3 μg/ml added", "value": 1.7}, {"measurement": "Thorium-227 atoms bound per cell, Unblocked", "setting": "[1]; RIC conc. 1.3 μg/ml added", "value": 1.9}, {"measurement": "Mean cpm bound per cell pellet, Unblocked", "setting": "[1]; RIC conc. 1.3 μg/ml added", "value": 226, "unit": "cpm"}, {"measurement": "Mean cpm bound per cell pellet, Blocked", "setting": "[1]; RIC conc. 1.3 μg/ml added", "value": 25, "unit": "cpm"}, {"measurement": "Thorium-227 atoms bound per cell, Blocked", "setting": "[1]; RIC conc. 1.3 μg/ml added", "value": 0.2}, {"measurement": "Thorium-227 atoms bound per cell, Net specific bound", "setting": "[1]; RIC conc. 5.3 μg/ml added", "value": 9.3}, {"measurement": "Thorium-227 atoms bound per cell, Unblocked", "setting": "[1]; RIC conc. 5.3 μg/ml added", "value": 10.1}, {"measurement": "Mean cpm bound per cell pellet, Unblocked", "setting": "[1]; RIC conc. 5.3 μg/ml added", "value": 1186, "unit": "cpm"}, {"measurement": "Mean cpm bound per cell pellet, Blocked", "setting": "[1]; RIC conc. 5.3 μg/ml added", "value": 97, "unit": "cpm"}, {"measurement": "Thorium-227 atoms bound per cell, Blocked", "setting": "[1]; RIC conc. 5.3 μg/ml added", "value": 0.8}, {"measurement": "Thorium-227 atoms bound per cell, Net specific bound", "setting": "[1]; RIC conc. 26.0 μg/ml added", "value": 32.5}, {"measurement": "Thorium-227 atoms bound per cell, Unblocked", "setting": "[1]; RIC conc. 26.0 μg/ml added", "value": 35.2}, {"measurement": "Mean cpm bound per cell pellet, Unblocked", "setting": "[1]; RIC conc. 26.0 μg/ml added", "value": 4141, "unit": "cpm"}, {"measurement": "Mean cpm bound per cell pellet, Blocked", "setting": "[1]; RIC conc. 26.0 μg/ml added", "value": 315, "unit": "cpm"}, {"measurement": "Thorium-227 atoms bound per cell, Blocked", "setting": "[1]; RIC conc. 26.0 μg/ml added", "value": 2.7}, {"measurement": "RIC bound to the unblocked vs. the blocked cells", "setting": "[1]; on average over the three concentrations", "value": "about 12 times"}, {"measurement": "Specific binding to the DAUDI cells", "setting": "[1]; unblocked vs. blocked cells", "value": "did bind specifically"}]}, {"compound": "[224Ra]", "note": "[^224Ra, radium-224]", "values": [{"measurement": "Death caused by haematological dyscrasia resulting from bone marrow destruction, number of dogs", "setting": "adult dogs; 350 kBq/kg", "value": "3 dogs out of 8"}, {"measurement": "% of baseline at nadir (neutrophils)", "setting": "adult dogs; [2]", "value": 60, "unit": "%"}, {"measurement": "Days to nadir (neutrophils)", "setting": "adult dogs; [2]", "value": 30, "unit": "days"}, {"measurement": "% of baseline at nadir (neutrophils)", "setting": "adult dogs; [3]", "value": 70, "unit": "%"}, {"measurement": "Days to nadir (neutrophils)", "setting": "adult dogs; [3]", "value": 10, "unit": "days"}, {"measurement": "% of baseline at nadir (neutrophils)", "setting": "adult dogs; [4]", "value": 20, "unit": "%"}, {"measurement": "Days to nadir (neutrophils)", "setting": "adult dogs; [4]", "value": 10, "unit": "days"}, {"measurement": "% of baseline at nadir (neutrophils)", "setting": "adult dogs; [5]", "value": 4, "unit": "%"}, {"measurement": "Days to nadir (neutrophils)", "setting": "adult dogs; [5]", "value": 10, "unit": "days"}]}]}
